Laboratory results as given in EP3156398A1, “AGONISTS OF THE CHEMOKINE RECEPTOR CXCR3” (Friedrich-Alexander-Universität Erlangen-Nürnberg, priority 2015, dated 2017).
Like-named read-outs stand apart in the source and are kept apart here.

Tests used:
CXCR3-PK1 = molecular target: T1, CXCR3-PK1 (Homo sapiens, UniProt P49682); assay: β-arrestin 2 recruitment assay (PathHunter, DiscoveRx), CXCR3-PK1 construct; type: cell-based
T1 construct: expressed in transfected cells; host or cells: HEK293 cells stably expressing beta-gal enzyme acceptor (PathHunter, DiscoveRx), transiently transfected
T1 sequence (P49682 1-368): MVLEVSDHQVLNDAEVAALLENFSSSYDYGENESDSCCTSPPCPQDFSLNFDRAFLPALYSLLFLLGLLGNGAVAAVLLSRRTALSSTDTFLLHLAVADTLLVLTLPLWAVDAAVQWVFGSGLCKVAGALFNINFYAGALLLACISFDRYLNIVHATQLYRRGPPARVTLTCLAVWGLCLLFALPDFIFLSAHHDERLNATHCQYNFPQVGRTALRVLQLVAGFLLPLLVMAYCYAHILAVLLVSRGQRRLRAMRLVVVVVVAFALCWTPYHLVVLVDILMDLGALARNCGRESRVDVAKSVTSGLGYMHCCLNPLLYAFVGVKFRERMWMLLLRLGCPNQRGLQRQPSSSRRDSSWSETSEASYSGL
Procedure: β-arrestin 2 recruitment assay: The measurement of β-arrestin recruitment was performed utilizing the PathHunter assay purchased from DiscoveRx (DiscoveRx, Birmingham, U.K.) according to the manufacturer's protocol. HEK293 cells stably expressing β-gal enzyme acceptor were transiently transfected with the ProLink (PK1) tagged wildtype CXCR3 receptor using the TransIT-293 transfection reagent from Mirus (purchased from MoBiTec, Goettingen, Germany). The assay was carried out in 384-well plates containing 2000 cells in 20 µL. After incubation at 37°C (5% CO2, 95% relative humidity) overnight, various concentrations of test compounds or CXCL11 (prepared in PBS, pH 7.4, containing 0.20% BSA) were added and the incubation continued for 4 h. Detection mix was then added and incubated for further 60 min at room temperature. Chemiluminescence was determined with a microplate reader Clariostar (BMG labtech, Ortenberg, Germany).
The ability of the novel ligands according to the present invention to induce CXCR3-mediated β-arrestin 2 recruitment was investigated in the assay system PathHunter (DiscoveRx), which detects the recruitment of β-amestin 2 to the activated receptor using β-galactosidase (β-gal) enzyme fragment complementation. The inventors used two different ProLink tags, ProLink1 (PK1) and ProLink2 (PK2), of which PK2 has higher affinity for the enzyme acceptor to detect weak protein-protein interactions. The CXCR3-PK2 construct is readily able to detect the differences in the propensity of CXCL11 and CXCL10 to induce β-arrestin 2 recruitment at CXCR3. […] Table 3. Ability of the 46/VUF10661 based positive allosteric modulators to activate the CXCR3 as measured in the β-arrestin 2 recruitment assay (PathHunter, DiscoveRx).[a]

CXCR3 = molecular target: T2, CXCR3 (Homo sapiens, UniProt P49682); assay: [35S]GTPγS incorporation assay; type: biochemical; details: for Emax: read-out: CXCR3 Efficacy (%) ± SEM; for CXCR3 pEC50 ± SEM: mean of three experiments in triplicate; for CXCR3 mediated G protein activation (result in words): [35S]GTPγS incorporation
T2 construct: expressed in transfected cells; host or cells: HEK293 / HEK293T cells, stably transfected; membrane preparations
T2 sequence (P49682 1-368): T1 sequence (P49682 1-368)
Procedure: Membrane preparation for allosteric radioligand RAMX3 displacement and [^35S]GTPγS incorporation assays: The human embryonic kidney (HEK) cells stably expressing the human CXCR3 receptor were cultured in 150-mm cell culture plates in DMEM/F-12 supplemented with 10% fetal bovine serum (FBS), 2 mM L-glutamine, 1% penicillin-streptomycin, 300 µgmL^-1 Zeocin and incubated at 37 °C in a humid atmosphere with 5% CO2. At 100% confluency cells were washed with PBS twice, treated with Tris EDTA buffer (10 mM Tris, 0.5 mM EDTA, 5 mM KCl, 140 mM NaCl, pH 7.4), and harvested using a cell scraper. Cells were pelleted at 1100×g for 8 min at 4 °C, resuspended in Tris-EDTA-MgCl2 buffer (50mM Tris, 5 mM EDTA, 1.5 mM CaCl2, 5 mM MgCl2, 5 mM KCl, 120 mM NaCl, pH 7.4) and followed by lysis with an Ultra-Turrax. After centrifugation at 50,000•g, at 4°C for 18 min the membranes were resuspended in the binding buffer (50 mM Tris, 1 mM EDTA, 5 mM MgCl2 and subsequently homogenized with a glass-Teflon homogenizer (20 strokes). The homogenized membranes were shock-frozen in liquid nitrogen and stored at -80°C. The protein concentration was determined with the Lowry method with bovine serum albumin used as a standard.^35
[^35S]GTPγS incorporation assay: The [^35S]GTPγS incorporation assay was performed on membrane preparations of stably transfected HEK293 cells that expressed the CXCR3 receptor. The assay was carried out in 96-well plates at the final volume of 200 µL. The incubation buffer contained 20 mM HEPES, 10 mM MgCl2•6H20,100 mM NaCl and 100 mg/L saponin (pH 7.4). Membranes (30 µgmL^-1 of membrane protein), various concentrations of test compound and CXCL11, and 1 µM GDP were preincubated in the absence of [^35S]GTPγS for 30 min at 37 °C. After the addition of 0.10 nM [^35S]GTPγS membranes were incubated for additional 30 min at 37 °C. Incubation was terminated by filtration through Whatman GF/B filters soaked with ice cold PBS. The filter-bound radioactivity was measured as described above. Three to four experiments per compound were performed with each concentration in triplicate.
The activation of G proteins was explored in terms of CXCR3 mediated [^35S]GTPγS incorporation. In the [^35S]GTPγS incorporation assay the membrane preparations of HEK293T cells stably expressing CXCR3 were used. The activation of G proteins was monitored as the incorporation of [^35S]GTPγS and thus increase in the incorporated radioactivity. The potency and efficacy of the novel compounds was first compared to the reference compound 46/VUF10661. […] Table 1. The ability of the 46/VUF10661 based positive allosteric modulators to activate CXCR3 as measured in the [35S]GTPγS incorporation assay.[a]

[1] = HEK293-T cells, PathHunter, CXCR3-PK1, two to three experiments in triplicate
[2] = % of CXCL11 mediated effect, membrane preparations of HEK293T stably expressing CXCR3
[3] = membrane preparations of HEK293T stably expressing CXCR3

CXCR3-PK1 pEC50 ± SEM (CXCR3-PK1; [1]) | Emax (CXCR3; [2]) | CXCR3 pEC50 ± SEM (CXCR3; [3]) | CXCR3 Efficacy (%) ± SEM (CXCR3; [2]) | CXCR3 mediated G protein activation (result in words) (CXCR3) | CXCR3-PK1 efficacy (%) at 10µM (CXCR3-PK1; @10µM, % of CXCL11 mediated effect, CXCR3-PK1) | EC50 (CXCR3-PK1; HEK293-T cells, PathHunter, CXCR3-PK1, two to three experiments in triplicate, read-out: CXCR3-PK1 pEC50 ± SEM (converted)) | SMILES | β-arrestin 2 recruitment, intrinsic agonism (result in words) (CXCR3-PK1) | Emax (CXCR3)
No effect | 20 ± 3% | 6.29±0.31 | – | – | – | – | CC(C)(C)OC(=O)N[C@@H](CCCCNC(=O)[C@@H]1Cc2ccccc2CN1C(=O)CCC(=O)c1ccc(F)cc1)C(=O)NCC(c1ccccc1)c1ccccc1 [Compound 13, Tert-butyl ((S)-1-((2,2-diphenylethyl)amino)-6-((S)-2-(4-(4-fluorophenyl)-4-oxobutanoyl)-1,2,3,4-tetrahydroisoquinoline-3-carboxamido)-1-oxohexan-2-yl)carbamate] | complete loss of intrinsic agonistic properties | –
No effect | 25 ± 3% | 5.91±0.20 | – | – | – | – | CC(C)(C)OC(=O)N[C@@H](CCCCNC(=O)[C@@H]1Cc2ccccc2CN1C(=O)CCC(=O)c1ccc(S(C)(=O)=O)cc1)C(=O)NCC(c1ccccc1)c1ccccc1 [Compound 15, Tert-butyl ((S)-1-((2,2-diphenylethyl)amino)-6-((S)-2-(4-(4-(methylsulfonyl)phenyl)-4-oxobutanoyl)-1,2,3,4-tetrahydroisoquinoline-3-carboxamido)-1-oxohexan-2-yl)carbamate] | complete loss of intrinsic agonistic properties | –
No effect | – | No effect | No effect | no reactivity was observed | – | – | CC(C)(C)OC(=O)N[C@@H](CCCCNC(=O)[C@@H]1Cc2ccccc2CN1C(=O)CCC(=O)N1CCCCC1)C(=O)NCC(c1ccccc1)c1ccccc1 [Compound 16, Tert-butyl ((S)-1-((2,2-diphenylethyl)amino)-1-oxo-6-((S)-2-(4-oxo-4-(piperidin-1-yl)butanoyl)-1,2,3,4-tetrahydroisoquinoline-3-carboxamido)hexan-2-yl)carbamate] | – | –
No effect | – | No effect | No effect | no effect | – | – | CC(C)(C)OC(=O)N[C@@H](CCCCNC(=O)[C@@H]1Cc2ccccc2CN1C(=O)CCC(=O)N1CCOCC1)C(=O)NCC(c1ccccc1)c1ccccc1 [Compound 17, Tert-butyl ((S)-1-((2,2-diphenylethyl)amino)-6-((S)-2-(4-moipholino-4--oxobutanoyl)-1,2,3,4-tetrahydroisoquinoline-3-carboxamido)-1-oxohexan-2 yl)carbamate] | – | –
No effect | – | No effect | No effect | – | – | – | CC(C)(C)OC(=O)N[C@@H](CCCCNC(=O)[C@@H]1Cc2ccccc2CN1C(=O)CCC(=O)c1cccs1)C(=O)NCC(c1ccccc1)c1ccccc1 [Compound 19, Tert-butyl ((S)-1-((2,2-diphenylethyl)amino)-1-oxo-6-((S)-2-(4-oxo-4-(thiophen-2-yl)butanoyl)-1,2,3,4-tetrahydroisoquinoline-3-carboxamido)hexan-2-yl)carbamate] | – | –
No effect | – | No effect | No effect | – | – | – | CC(C)(C)OC(=O)N[C@@H](CCCCNC(=O)[C@@H]1Cc2ccccc2CN1C(=O)CCC(=O)c1ccco1)C(=O)NCC(c1ccccc1)c1ccccc1 [Compound 20, Tert-butyl ((S)-1-((2,2-diphenylethyl)amino)-6-((S)-2-(4-(furan-2-yl)-4-oxobutanoyl)-1,2,3,4-tetrahydroisoquinoline-3-carboxamido)-1-oxohexan-2-yl)carbamate] | – | –
No effect | 18% | 7.30±0.17 | 18±1% | – | – | – | COc1ccc(C(=O)CCC(=O)N2Cc3ccccc3C[C@H]2C(=O)NCCCC[C@H](NC(=O)OC(C)(C)C)C(=O)NCC(c2ccccc2)c2ccccc2)cc1OC [Compound 21, Tert-butyl ((S)-6-((S)-2-(4-(3,4-dimethoxyphenyl)-4-oxobutanoyl)-1,2,3,4-tetrahydroisoquinoline-3-carboxamido)-1-((2,2-diphenylethyl)amino)-1-oxohexan-2-yl)carbamate] | complete loss of intrinsic agonistic properties | –
– | 47 ± 3% | 5.88±0.10 | – | – | 70% | < 10 µM | CC(C)(C)OC(=O)NCCCC[C@H](NC(=O)[C@@H]1Cc2ccccc2CN1C(=O)CCC(=O)c1ccccc1)C(=O)NCC(c1ccccc1)c1ccccc1 [Compound 44, Tert-buyl ((S)-6-((2,2-diphenylethyl)amino)-6-oxo-5-((S)-2-(4-oxo-4-phenylbutanoyl)-1,2,3,4-tetrahydroisoquinoline-3-carboxamido)hexyl)carbamate] | – | –

SMILES | CXCR3-PK1 pEC50 ± SEM (CXCR3-PK1; [1]) | Emax (CXCR3; [2]) | CXCR3 pEC50 ± SEM (CXCR3; [3]) | CXCR3 Efficacy (%) ± SEM (CXCR3; [2]) | CXCR3 mediated G protein activation (result in words) (CXCR3) | CXCR3-PK1 efficacy (%) at 10µM (CXCR3-PK1; @10µM, % of CXCL11 mediated effect, CXCR3-PK1) | EC50 (CXCR3-PK1; HEK293-T cells, PathHunter, CXCR3-PK1, two to three experiments in triplicate, read-out: CXCR3-PK1 pEC50 ± SEM (converted)) | β-arrestin 2 recruitment, intrinsic agonism (result in words) (CXCR3-PK1) | Emax (CXCR3)
CN1CCN(C(=O)CCC(=O)N2Cc3ccccc3C[C@H]2C(=O)NCCCC[C@H](NC(=O)OC(C)(C)C)C(=O)NCC(c2ccccc2)c2ccccc2)CC1.O=C(O)C(F)(F)F [Compound 18, 4-(4-((S)-3-(((S)-5-((tert-butoxycarbonyl)amino)-6-((2,2-diphenylethyl)amino)-6-oxohexyl)carbamoyl)-3,4-dihydroisoquinolin-2(1H)-yl)-4-oxobutanoyl)-1-methylpiperazin-1-ium 2,2,2-trifluoroacetate] | No effect | – | No effect | No effect | no effect | – | – | – | –
CC(C)(C)OC(=O)N[C@@H](CCCCNC(=O)[C@@H]1Cc2ccccc2CN1C(=O)CCCc1ccccc1)C(=O)NCC(c1ccccc1)c1ccccc1 [Compound 22, Tert-butyl ((S)-1-((2,2-diphenylethyl)amino)-1-oxo-6-((S)-2-(4-phenylbutanoyl)-1,2,3,4-tetrahydroisoquinoline-3-carboxammido)hexan-2-yl)carbamate] | No effect | – | 5.07±0.50 | – | – | – | – | – | 29 ± 15%
